Assay results reported in ChEMBL document CHEMBL3046035, “Synthesis and biological evaluation of novel 4,5-dihydropyrazole derivatives as potent anticancer and antimicrobial agents” (Med Chem Res, 2013).
Converted amounts (≈) assume the structure as drawn.

Columns and labels:
[1] = tested on: Enterococcus faecalis; assay: Antimicrobial activity against Enterococcus faecalis ATCC 14506 assessed as growth inhibition after 24 hr by broth microdilution method; format: functional; details: ATCC 14506, 24 h
[2] = tested on: A549; assay: Anticancer activity against Homo sapiens (human) A549 cells assessed as inhibition of cell viability after 96 hr by MTT assay; format: functional, cell-based; details: A549, 96 h
[3] = tested on: Candida tropicalis; assay: Antimicrobial activity against Candida tropicalis ATCC 1369 assessed as growth inhibition after 24 hr by broth microdilution method; format: functional; details: ATCC 1369, 24 h
[4] = tested on: Escherichia coli; assay: Antimicrobial activity against Escherichia coli ATCC 10536 assessed as growth inhibition after 24 hr by broth microdilution method; format: functional; details: ATCC 10536, 24 h
[5] = tested on: Bacillus subtilis; assay: Antimicrobial activity against Bacillus subtilis ATCC 60511 assessed as growth inhibition after 24 hr by broth microdilution method; format: functional; details: ATCC 60511, 24 h
[6] = tested on: BGC-823; assay: Anticancer activity against Homo sapiens (human) BGC823 cells assessed as inhibition of cell viability after 96 hr by MTT assay; format: functional, cell-based; details: BGC-823, 96 h
[7] = tested on: Staphylococcus aureus; assay: Antimicrobial activity against Staphylococcus aureus ATCC 11632 assessed as growth inhibition after 24 hr by broth microdilution method; format: functional; details: ATCC 11632, 24 h
[8] = tested on: Klebsiella pneumoniae; assay: Antimicrobial activity against Klebsiella pneumoniae ATCC 10031 assessed as growth inhibition after 24 hr by broth microdilution method; format: functional; details: ATCC 10031, 24 h
[9] = tested on: MCF7; assay: Anticancer activity against Homo sapiens (human) MCF7 cells assessed as inhibition of cell viability after 96 hr by MTT assay; format: functional, cell-based; details: MCF7, 96 h
[10] = tested on: Aspergillus niger; assay: Antimicrobial activity against Aspergillus niger ATCC 6275 assessed as growth inhibition after 24 hr by broth microdilution method; format: functional; details: ATCC 6275, 24 h
[11] = tested on: Saccharomyces cerevisiae; assay: Antimicrobial activity against Saccharomyces cerevisiae ATCC 9763 assessed as growth inhibition after 24 hr by broth microdilution method; format: functional; details: ATCC 9763, 24 h
[12] = tested on: Pseudomonas aeruginosa; assay: Antimicrobial activity against Pseudomonas aeruginosa ATCC 10145 assessed as growth inhibition after 24 hr by broth microdilution method; format: functional; details: ATCC 10145, 24 h
[13] = tested on: HeLa; assay: Anticancer activity against Homo sapiens (human) HeLa cells assessed as inhibition of cell viability after 96 hr by MTT assay; format: functional, cell-based
[14] = tested on: A2780; assay: Anticancer activity against Homo sapiens (human) A2780 cells assessed as inhibition of cell viability after 96 hr by MTT assay; format: functional, cell-based; details: A2780, 96 h

## Fc1cccc(F)c1C1CC(c2ccccc2)=NN1c1nc(-c2ccc(Br)cc2)cs1 (stereo unspecified)
[1]
  MIC: 8 µg/mL (≈ 16.1 µM)
[2]
  IC50: 1930 nM
[3]
  MIC: 62.5 µg/mL (≈ 126 µM)
[4]
  MIC: 31.2 µg/mL (≈ 63 µM)
[5]
  MIC: 8 µg/mL (≈ 16.1 µM)
[6]
  IC50: 1340 nM
[7]
  MIC: 16 µg/mL (≈ 32.2 µM)
[8]
  MIC: 16 µg/mL (≈ 32.2 µM)
[9]
  IC50: 2140 nM
[10]
  MIC: 62.5 µg/mL (≈ 126 µM)
[11]
  MIC: 62.5 µg/mL (≈ 126 µM)
[12]
  MIC: 31.2 µg/mL (≈ 63 µM)
[13]
  IC50: 6120 nM
[14]
  IC50: 2450 nM

## Cc1ccc(/C=N/NC(=O)Cc2csc(N3N=C(c4ccccc4)CC3c3c(F)cccc3F)n2)cc1 (stereo unspecified)
[1]
  MIC: 16 µg/mL (≈ 31 µM)
[2]
  IC50: 1500 nM
[3]
  MIC: 8 µg/mL (≈ 15.5 µM)
[4]
  MIC: 125 µg/mL (≈ 242 µM)
[5]
  MIC: 16 µg/mL (≈ 31 µM)
[6]
  IC50: 1450 nM
[7]
  MIC: 125 µg/mL (≈ 242 µM)
[8]
  MIC: 125 µg/mL (≈ 242 µM)
[9]
  IC50: 1650 nM
[10]
  MIC: 16 µg/mL (≈ 31 µM)
[11]
  MIC: 8 µg/mL (≈ 15.5 µM)
[12]
  MIC: 16 µg/mL (≈ 31 µM)
[13]
  IC50: 5910 nM
[14]
  IC50: 2620 nM

## O=C1CSC(N2N=C(c3ccccc3)CC2c2c(F)cccc2F)=N1 (stereo unspecified)
[1]
  MIC: 16 µg/mL (≈ 44.8 µM)
[2]
  IC50: 4580 nM
[3]
  MIC: 31.2 µg/mL (≈ 87.4 µM)
[4]
  MIC: 62.5 µg/mL (≈ 175 µM)
[5]
  MIC: 31.2 µg/mL (≈ 87.4 µM)
[6]
  IC50: 2350 nM
[7]
  MIC: 16 µg/mL (≈ 44.8 µM)
[8]
  MIC: 16 µg/mL (≈ 44.8 µM)
[9]
  IC50: 1940 nM
[10]
  MIC: 31.2 µg/mL (≈ 87.4 µM)
[11]
  MIC: 31.2 µg/mL (≈ 87.4 µM)
[12]
  MIC: 16 µg/mL (≈ 44.8 µM)
[13]
  IC50: 6450 nM
[14]
  IC50: 5320 nM

## Fc1cccc(F)c1C1CC(c2ccccc2)=NN1C1=NC(c2ccc(Cl)cc2Cl)S1 (stereo unspecified)
[1]
  MIC: 125 µg/mL (≈ 264 µM)
[2]
  IC50: 3250 nM
[3]
  MIC: 62.5 µg/mL (≈ 132 µM)
[4]
  MIC: 16 µg/mL (≈ 33.7 µM)
[5]
  MIC: 31.2 µg/mL (≈ 65.9 µM)
[6]
  IC50: 3310 nM
[7]
  MIC: 125 µg/mL (≈ 264 µM)
[8]
  MIC: 31.2 µg/mL (≈ 65.9 µM)
[9]
  IC50: 1890 nM
[10]
  MIC: 8 µg/mL (≈ 16.9 µM)
[11]
  MIC: 16 µg/mL (≈ 33.7 µM)
[12]
  MIC: 125 µg/mL (≈ 264 µM)
[13]
  IC50: 6130 nM
[14]
  IC50: 4510 nM

## Fc1cccc(F)c1C1CC(c2ccccc2)=NN1C1=NC(c2ccccc2)S1 (stereo unspecified)
[1]
  MIC: 8 µg/mL (≈ 19.7 µM)
[2]
  IC50: 2110 nM
[3]
  MIC: 31.2 µg/mL (≈ 77.1 µM)
[4]
  MIC: 16 µg/mL (≈ 39.5 µM)
[5]
  MIC: 31.2 µg/mL (≈ 77.1 µM)
[6]
  IC50: 1970 nM
[7]
  MIC: 16 µg/mL (≈ 39.5 µM)
[8]
  MIC: 16 µg/mL (≈ 39.5 µM)
[9]
  IC50: 1720 nM
[10]
  MIC: 125 µg/mL (≈ 308 µM)
[11]
  MIC: 62.5 µg/mL (≈ 154 µM)
[12]
  MIC: 62.5 µg/mL (≈ 154 µM)
[13]
  IC50: 5710 nM
[14]
  IC50: 4330 nM

## O=C(/C=C/c1c(F)cccc1F)c1ccccc1
[1]
  MIC: 125 µg/mL (≈ 512 µM)
[3]
  MIC: 62.5 µg/mL (≈ 256 µM)
[4]
  MIC: 125 µg/mL (≈ 512 µM)
[5]
  MIC: 125 µg/mL (≈ 512 µM)
[7]
  MIC: 31.2 µg/mL (≈ 128 µM)
[8]
  MIC: 125 µg/mL (≈ 512 µM)
[10]
  MIC: 62.5 µg/mL (≈ 256 µM)
[11]
  MIC: 62.5 µg/mL (≈ 256 µM)
[12]
  MIC: 8 µg/mL (≈ 32.8 µM)

## NC(=S)N1N=C(c2ccccc2)CC1c1c(F)cccc1F (stereo unspecified)
[1]
  MIC: 31.2 µg/mL (≈ 98.5 µM)
[2]
  IC50: 2550 nM
[3]
  MIC: 31.2 µg/mL (≈ 98.5 µM)
[4]
  MIC: 62.5 µg/mL (≈ 197 µM)
[5]
  MIC: 8 µg/mL (≈ 25.2 µM)
[6]
  IC50: 1840 nM
[7]
  MIC: 31.2 µg/mL (≈ 98.5 µM)
[8]
  MIC: 62.5 µg/mL (≈ 197 µM)
[9]
  IC50: 2150 nM
[10]
  MIC: 62.5 µg/mL (≈ 197 µM)
[11]
  MIC: 125 µg/mL (≈ 394 µM)
[12]
  MIC: 31.2 µg/mL (≈ 98.5 µM)
[13]
  IC50: 6250 nM
[14]
  IC50: 3620 nM

## CCOC(=O)Cc1csc(N2N=C(c3ccccc3)CC2c2c(F)cccc2F)n1 (stereo unspecified)
[1]
  MIC: 31.2 µg/mL (≈ 73.1 µM)
[2]
  IC50: 4180 nM
[3]
  MIC: 31.2 µg/mL (≈ 73.1 µM)
[4]
  MIC: 8 µg/mL (≈ 18.7 µM)
[5]
  MIC: 31.2 µg/mL (≈ 73.1 µM)
[6]
  IC50: 3850 nM
[7]
  MIC: 16 µg/mL (≈ 37.4 µM)
[8]
  MIC: 8 µg/mL (≈ 18.7 µM)
[9]
  IC50: 2110 nM
[10]
  MIC: 62.5 µg/mL (≈ 146 µM)
[11]
  MIC: 62.5 µg/mL (≈ 146 µM)
[12]
  MIC: 8 µg/mL (≈ 18.7 µM)
[13]
  IC50: 6310 nM
[14]
  IC50: 3910 nM

## O=C(Cc1csc(N2N=C(c3ccccc3)CC2c2c(F)cccc2F)n1)N/N=C/c1c(F)cccc1F (stereo unspecified)
[1]
  MIC: 16 µg/mL (≈ 29.8 µM)
[2]
  IC50: 960 nM
[3]
  MIC: 4 µg/mL (≈ 7.44 µM)
[4]
  MIC: 4 µg/mL (≈ 7.44 µM)
[5]
  MIC: 62.5 µg/mL (≈ 116 µM)
[6]
  IC50: 1320 nM
[7]
  MIC: 16 µg/mL (≈ 29.8 µM)
[8]
  MIC: 8 µg/mL (≈ 14.9 µM)
[9]
  IC50: 1200 nM
[10]
  MIC: 16 µg/mL (≈ 29.8 µM)
[11]
  MIC: 16 µg/mL (≈ 29.8 µM)
[12]
  MIC: 8 µg/mL (≈ 14.9 µM)
[13]
  IC50: 4230 nM
[14]
  IC50: 2540 nM

## O=C(O)c1cn(C2CC2)c2cc(N3CCNCC3)c(F)cc2c1=O [CIPROFLOXACIN]
[1]
  MIC: ≤ 5 µg/mL
[4]
  MIC: ≤ 1 µg/mL
[5]
  MIC: ≤ 1 µg/mL
[7]
  MIC: ≤ 5 µg/mL
[8]
  MIC: ≤ 1 µg/mL
[12]
  MIC: 5 µg/mL (≈ 15.1 µM)

## OC(Cn1cncn1)(Cn1cncn1)c1ccc(F)cc1F [FLUCONAZOLE]
[3]
  MIC: ≤ 1 µg/mL
[10]
  MIC: ≤ 1 µg/mL
[11]
  MIC: ≤ 1 µg/mL

## CCn1cc(C(=O)O)c(=O)c2cc(F)c(N3CCNCC3)cc21 [NORFLOXACIN]
[1]
  MIC: 5 µg/mL (≈ 15.7 µM)
[4]
  MIC: ≤ 1 µg/mL
[5]
  MIC: ≤ 1 µg/mL
[7]
  MIC: 5 µg/mL (≈ 15.7 µM)
[8]
  MIC: ≤ 1 µg/mL
[12]
  MIC: 5 µg/mL (≈ 15.7 µM)
